Tests used:
HCT116 cell line = test: Tumor volume in mice transplanted with HCT116 colorectal cancer cell line after PHI-101 and radiation; format: in vivo; settings: HCT116 xenograft mice; PHI-101 20 mg/kg intraperitoneally 24 h and 3 h before and 24 h after 3 Gy X-ray, repeated twice at one-week interval; combination
Protocol: (§1) 6-week-old female Balb/c nu/nu mice (Orient Bio Inc.) and NOD SCID mice (Orient Bio Inc.) were prepared. The mice were acclimated for 1 week after purchase, and then tumor transplants were prepared. During the animal experiment, cages were replaced once a week, and drinking water and feed were often checked to ensure that they were always sufficiently supplied.
(§2) Each of the tumor cell lines shown in Table 1 below was cultured with DMEM (Dulbecco's Modified Eagle Medium) or RPMI-1640 in a 150-mm culture dish (SPL) under 5% CO2 at 37° C. Then, each tumor cell line was diluted to a density of 1×10^6 cells/100 μl using cold DPBS buffer (Welgene), and kept cold on ice until transplantation. […]
(§3) When each tumor cell line transplanted to the mice in Example 1-2 proliferated and the tumor begun to be visible, the lengths of the longest and shortest diameters of the tumor were measured using digital calipers (Mitutoyo). […]
(§4) The tumor volume was measured at intervals of 2 to 4 days, and was calculated using the following equation: V=½(L×W^2) • V=volume (mm^3) • L=length [mm], the longest diameter • W=width [mm], the shortest diameter
(§5) The measurement end time was determined based on when the average volume of the control tumor reached about 2,000 mm^3. The data of the measured tumor volume was first organized in Microsoft Excel, and plotted in GraphPad Prism. […]

JIMT-1 cell line = test: Tumor volume in mice transplanted with JIMT-1 breast cancer cell line after PHI-101 and radiation; format: in vivo; settings: JIMT-1 xenograft mice; PHI-101 20 mg/kg intraperitoneally 24 h and 3 h before and 24, 48, 72 h after 3 Gy 60Co γ-ray, repeated three times for 3 weeks; combination
Protocol: as §1, §2, §3, §4, §5

FaDu cell line = test: Tumor volume in mice transplanted with FaDu head and neck cancer cell line after PHI-101 and radiation; format: in vivo; settings: FaDu xenograft mice; PHI-101 20 mg/kg intraperitoneally 3 h before and 24, 48, 72, 96 h after 3 Gy 60Co γ-ray, repeated three times for 3 weeks; combination
Protocol: as §1, §2, §3, §4, §5

[1] = system: JIMT-1 breast cancer cell line; test: Clonogenic assay after PHI-101 and radiation, JIMT-1; format: cell-based; settings: PHI-101 0.1, 0.2 or 0.5 μM, 0, 1, 2 or 3 Gy 3 hours after treatment, colonies after 10 days
Protocol: (§6) Whether the PHI-101 compound can act as a radiotherapy sensitizer for breast cancer was evaluated using clonogenic assay.
(§7) Specifically, each of the breast cancer cell lines shown in Table 2 below was added to DMEM medium in a 60-mm dish at a density of 300 cells, and treated with PHI-101 at a concentration of 0.1, 0.2 or 0.5 μM. As a control, DMSO was used.
(§8) 3 hours after PHI-101 treatment, the cells were irradiated with radiation having an intensity of 0, 1, 2 or 3 Gy. Next, the cells were cultured under 5% CO2 at 37° C. for 10 days, and then the formed colonies were stained with 0.4% crystal violet. Then, the colonies were counted and the surviving fraction of the cells was calculated. The results of calculating the surviving fraction were normalized and fitted to a linear-quadratic model using Kaleidagraph version 351 (Synergy Software, Reading, PA).

[2] = system: MDA-MB-468 breast cancer cell line; test: Clonogenic assay after PHI-101 and radiation, MDA-MB-468; format: cell-based; settings: PHI-101 0.1, 0.2 or 0.5 μM, 0, 1, 2 or 3 Gy 3 hours after treatment, colonies after 10 days
Protocol: as §6, §7, §8

For `NC(=O)Nc1cc(C#Cc2cccc(F)c2)sc1C(=O)N[C@H]1CCCNC1` [PHI-101, (S)-5-((3-fluorophenyl)ethynyl)-N-(piperidin-3-yl)-3-ureido-thiophene-2-carboxamide], the “tumor volume inhibited compared to when only irradiation was performed” value (HCT116 cell line) was 36.60%, the “tumor volume reduced compared to that in the control group” value (shortened to “tumor volume reduced compared to that”) (HCT116 cell line) was 49.58% and the “tumor volume inhibited compared to when only irradiation was performed” value (JIMT-1 cell line) was 20.53%. The “tumor volume reduced compared to that” value (JIMT-1 cell line) was 27.32%, the “tumor volume inhibited compared to when only irradiation was performed” value (FaDu cell line) was 29.16% and the “tumor volume reduced compared to that” value (FaDu cell line) was 37.50%. The “radiation sensitivity of the breast cancer cells (surviving fraction, linear-quadratic model)” value [1] was “increased in a concentration-dependent manner” and the “radiation sensitivity of the breast cancer cells (surviving fraction, linear-quadratic model)” value [2] was “increased in a concentration-dependent manner”.

— patent US12685729B2, “Use of 2,3,5-substituted thiophene compound for enhancement of radiotherapy” (Pharos iBio Co., Ltd., priority 2018, dated 2026)
